Measurements: paper PMC8578705 (Cell Reports, 2021)

How the values were obtained:
[1] = target: T1, IP3R1 (HEK-IP3R1 cells) (Rattus norvegicus, UniProt P29994); test: Ca2+ release from permeabilized HEK-IP3R1 cells; type: cell-based; details: at the concentrations used (heparin 10 mg/mL, dequalinium 50 μM, 2-APB 125 μM), permeabilized HEK-IP3R1 cells
T1 construct: expressed in transfected cells
Procedure: Fluorescence, which is approximately linearly related to ER free [Ca^2+] […] Ca^2+-free CLM comprised: 20 mM NaCl, 140 mM KCl, 1 mM EGTA, 20 mM PIPES, 2 mM MgCl2, pH 7.0. […] MgATP (1.5 mM) was added to initiate Ca^2+ uptake, and when the ER had loaded to steady state with Ca^2+ (∼150 s), ligands were added. Responses to the ligands show ER Ca^2+ contents as either time courses or, in summary results, as the Ca^2+ content recorded 20 s after addition of the stimulus. The distribution of samples across 96-well plates was varied between experiments to avoid any systematic ‘position-related’ artifacts. HEK-G-CEPIA1er cells were permeabilized and assayed as described for Mag-fluo 4-loaded cells.
For equilibrium binding and concentration-effect relationships, results from each experiment were fitted to Hill equations (PRISM) from which pIC50 (-log of half-maximal inhibitory concentration) or pEC50 (-log of half-maximally effective concentration) values were determined.

[2] = target: T2, IP3R1 (cerebellar membranes) (Rattus norvegicus, UniProt P29994); test: Equilibrium-competition [3H]IP3 binding to cerebellar membranes in CLM (conditions mimicking functional assays); details: dequalinium 50 μM, [3H]IP3 7.5 nM, cerebellar membranes in CLM at 20°C
T2 construct: membranes from cerebella of adult Wistar rats; from tissue; host or cells: cerebellar membranes of adult Wistar rats
Procedure: Bound and free ligand were separated by centrifugation (22°C, 5 min, 14,000 × g).
For equilibrium binding and concentration-effect relationships, results from each experiment were fitted to Hill equations (PRISM) from which pIC50 (-log of half-maximal inhibitory concentration) or pEC50 (-log of half-maximally effective concentration) values were determined. KDligand was calculated from: KDligand = […] . In functional assays, dose ratios (DR) were used to calculate antagonist affinities ([Arunlakshana and Schild, 1959]): KDantagonist = [antagonist]/(DR-1).

T1 sequence (P29994 1-2735 isoform P29994-2): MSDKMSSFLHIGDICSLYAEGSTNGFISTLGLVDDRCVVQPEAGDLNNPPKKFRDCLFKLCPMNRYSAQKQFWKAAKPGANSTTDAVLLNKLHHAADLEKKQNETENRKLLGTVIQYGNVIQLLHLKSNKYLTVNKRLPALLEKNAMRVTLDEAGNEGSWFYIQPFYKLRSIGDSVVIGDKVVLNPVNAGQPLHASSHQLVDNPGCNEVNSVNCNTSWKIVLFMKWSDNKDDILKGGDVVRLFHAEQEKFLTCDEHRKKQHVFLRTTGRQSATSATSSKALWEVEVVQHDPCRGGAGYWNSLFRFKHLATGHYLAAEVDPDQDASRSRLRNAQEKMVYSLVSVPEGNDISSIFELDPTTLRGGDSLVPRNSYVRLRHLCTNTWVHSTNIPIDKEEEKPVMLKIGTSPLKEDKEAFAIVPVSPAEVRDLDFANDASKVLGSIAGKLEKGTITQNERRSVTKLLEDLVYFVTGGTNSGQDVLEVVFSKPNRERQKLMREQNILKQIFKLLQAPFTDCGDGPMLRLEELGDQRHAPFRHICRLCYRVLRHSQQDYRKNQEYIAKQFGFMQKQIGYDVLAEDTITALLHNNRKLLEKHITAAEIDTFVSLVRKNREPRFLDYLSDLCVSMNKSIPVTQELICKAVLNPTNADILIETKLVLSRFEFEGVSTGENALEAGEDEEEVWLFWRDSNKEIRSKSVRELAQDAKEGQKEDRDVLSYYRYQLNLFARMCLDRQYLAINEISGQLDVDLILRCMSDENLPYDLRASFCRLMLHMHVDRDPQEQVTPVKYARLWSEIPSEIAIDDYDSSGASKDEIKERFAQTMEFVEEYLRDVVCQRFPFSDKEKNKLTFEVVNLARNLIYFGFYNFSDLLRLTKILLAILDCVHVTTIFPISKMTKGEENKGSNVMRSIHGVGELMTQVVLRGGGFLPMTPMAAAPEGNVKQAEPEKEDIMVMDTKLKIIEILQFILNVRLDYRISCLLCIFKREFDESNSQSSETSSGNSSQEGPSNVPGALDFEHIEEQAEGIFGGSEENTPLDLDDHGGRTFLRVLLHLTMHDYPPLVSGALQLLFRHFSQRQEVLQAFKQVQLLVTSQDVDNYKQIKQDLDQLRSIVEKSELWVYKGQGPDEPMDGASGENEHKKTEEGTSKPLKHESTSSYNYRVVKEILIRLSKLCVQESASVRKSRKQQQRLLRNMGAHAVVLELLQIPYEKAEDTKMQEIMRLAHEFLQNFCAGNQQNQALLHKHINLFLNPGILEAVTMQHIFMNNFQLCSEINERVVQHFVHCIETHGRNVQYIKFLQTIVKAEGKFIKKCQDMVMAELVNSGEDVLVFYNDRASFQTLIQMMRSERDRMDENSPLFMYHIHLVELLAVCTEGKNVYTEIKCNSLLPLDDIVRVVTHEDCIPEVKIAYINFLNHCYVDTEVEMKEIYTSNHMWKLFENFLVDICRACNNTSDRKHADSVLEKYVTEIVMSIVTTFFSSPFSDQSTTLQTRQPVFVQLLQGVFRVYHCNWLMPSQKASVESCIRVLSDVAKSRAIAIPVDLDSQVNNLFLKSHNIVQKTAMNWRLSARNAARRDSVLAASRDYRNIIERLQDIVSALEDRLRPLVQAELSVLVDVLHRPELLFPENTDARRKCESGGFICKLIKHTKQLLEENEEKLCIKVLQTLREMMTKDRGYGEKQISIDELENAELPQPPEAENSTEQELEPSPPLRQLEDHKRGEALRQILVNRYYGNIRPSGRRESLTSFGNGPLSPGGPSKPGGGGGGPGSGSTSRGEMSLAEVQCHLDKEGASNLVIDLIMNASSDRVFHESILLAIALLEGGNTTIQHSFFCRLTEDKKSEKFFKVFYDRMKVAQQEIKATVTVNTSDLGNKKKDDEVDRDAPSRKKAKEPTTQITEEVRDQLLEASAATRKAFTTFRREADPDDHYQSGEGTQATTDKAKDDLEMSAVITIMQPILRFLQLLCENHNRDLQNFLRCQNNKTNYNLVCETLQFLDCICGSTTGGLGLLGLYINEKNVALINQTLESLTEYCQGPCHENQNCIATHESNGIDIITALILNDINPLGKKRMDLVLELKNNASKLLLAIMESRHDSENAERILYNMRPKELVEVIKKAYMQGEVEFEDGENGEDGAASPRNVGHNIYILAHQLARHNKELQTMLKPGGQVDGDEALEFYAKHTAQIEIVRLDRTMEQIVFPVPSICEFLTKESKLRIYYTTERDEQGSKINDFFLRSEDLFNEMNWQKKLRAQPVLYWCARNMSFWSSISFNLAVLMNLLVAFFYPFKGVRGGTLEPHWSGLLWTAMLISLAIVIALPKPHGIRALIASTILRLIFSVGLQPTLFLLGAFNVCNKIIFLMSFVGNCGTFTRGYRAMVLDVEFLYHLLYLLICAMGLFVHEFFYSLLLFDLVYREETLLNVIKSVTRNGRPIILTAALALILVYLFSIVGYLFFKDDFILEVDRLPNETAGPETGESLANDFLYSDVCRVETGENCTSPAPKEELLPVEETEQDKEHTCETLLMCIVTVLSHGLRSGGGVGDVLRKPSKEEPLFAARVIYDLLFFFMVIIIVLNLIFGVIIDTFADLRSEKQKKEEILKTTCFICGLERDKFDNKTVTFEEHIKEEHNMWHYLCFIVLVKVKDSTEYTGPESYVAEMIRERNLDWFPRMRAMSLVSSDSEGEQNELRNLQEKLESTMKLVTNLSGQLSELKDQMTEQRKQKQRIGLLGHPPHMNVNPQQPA

block of IP3-evoked Ca2+ release [1] | effect on specific [3H]IP3 binding [2] | Structure (SMILES)
completely | No significant difference | Cc1cc(N)c2ccccc2[n+]1CCCCCCCCCC[n+]1c(C)cc(N)c2ccccc21 [dequalinium, Dequalinium chloride hydrate]
partially |  | NCCOB(c1ccccc1)c1ccccc1 [Compound 2-APB, 2-aminoethoxydiphenyl borate]
